From doi:10.1101/2024.08.19.608619, “Discovery of potent SARS-CoV-2 nsp3 macrodomain inhibitors uncovers lack of translation to cellular antiviral response” (bioRxiv, 2024) come the findings set out here.

One data set has as its system HeLa-ACE2 cells. To be noted: HeLa-ACE2 cytotoxicity.
The target of data set [1] is T1, N neuronal alpha4beta2 (h) (Homo sapiens, UniProt P17787+P43681).
T1 construct: purchased Eurofins Cerep (SafetyScreen44), recognised from the panel format
Nature of the data set: In vitro CEREP profiling, N neuronal alpha4beta2 (h) (agonist radioligand). It counts as binding. The conditions noted are these: test compound concentration 10 uM. The source says: (§1) Supplement media-1.zip/Safety_Panel_Profile.csv, table | column: perc_inhibition

In a further data set the test system is AR(h). Nature of the data set: In vitro CEREP profiling, AR(h) (agonist radioligand). In kind it is binding, human. To be noted: test compound concentration 10 uM.
Text: as §1

A further data set concerns the target T2, 5-HT3 (h) (Homo sapiens, UniProt P46098).
T2 construct: purchased Eurofins Cerep (SafetyScreen44), recognised from the panel format
T2 sequence (P46098 24-478): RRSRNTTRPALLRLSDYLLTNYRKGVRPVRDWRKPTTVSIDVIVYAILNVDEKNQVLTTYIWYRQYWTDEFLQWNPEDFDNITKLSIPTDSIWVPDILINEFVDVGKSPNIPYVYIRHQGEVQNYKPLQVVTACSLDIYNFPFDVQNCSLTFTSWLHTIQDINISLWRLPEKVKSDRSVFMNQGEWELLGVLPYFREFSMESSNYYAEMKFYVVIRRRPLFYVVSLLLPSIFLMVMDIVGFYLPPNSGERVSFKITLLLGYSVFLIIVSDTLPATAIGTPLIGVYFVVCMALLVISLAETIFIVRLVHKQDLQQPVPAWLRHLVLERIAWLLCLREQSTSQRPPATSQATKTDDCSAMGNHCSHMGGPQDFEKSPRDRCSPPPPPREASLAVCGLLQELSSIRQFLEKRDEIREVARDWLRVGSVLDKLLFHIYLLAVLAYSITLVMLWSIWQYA
Nature of the data set: In vitro CEREP profiling, 5-HT3 (h) (antagonist radioligand). To be noted: test compound concentration 10 uM. It counts as binding.
Text: as §1

In a further data set the target is T3, CB1 (h) (Homo sapiens, UniProt P21554).
T3 construct: purchased Eurofins Cerep (SafetyScreen44), recognised from the panel format
T3 sequence (P21554 whole entry): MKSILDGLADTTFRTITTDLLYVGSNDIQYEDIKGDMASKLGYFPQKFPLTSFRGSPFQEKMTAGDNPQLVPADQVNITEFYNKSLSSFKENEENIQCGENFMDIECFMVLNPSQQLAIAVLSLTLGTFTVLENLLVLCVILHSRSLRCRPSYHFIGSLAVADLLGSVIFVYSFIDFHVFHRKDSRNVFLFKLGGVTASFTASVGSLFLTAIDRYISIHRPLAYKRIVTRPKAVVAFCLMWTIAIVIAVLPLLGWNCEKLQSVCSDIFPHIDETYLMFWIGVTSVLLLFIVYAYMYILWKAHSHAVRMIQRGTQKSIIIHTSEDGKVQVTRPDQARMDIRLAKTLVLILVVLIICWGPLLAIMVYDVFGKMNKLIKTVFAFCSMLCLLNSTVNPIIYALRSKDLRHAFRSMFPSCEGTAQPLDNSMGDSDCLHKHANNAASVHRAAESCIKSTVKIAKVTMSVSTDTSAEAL
Nature of the data set: In vitro CEREP profiling, CB1 (h) (agonist radioligand). In kind it is binding. To be noted: test compound 10 uM.
Text: as §1

The target in the next data set is T4, GR (h) (Homo sapiens, UniProt P04150).
T4 construct: purchased Eurofins Cerep (SafetyScreen44), recognised from the panel format
T4 sequence (P04150 1-777): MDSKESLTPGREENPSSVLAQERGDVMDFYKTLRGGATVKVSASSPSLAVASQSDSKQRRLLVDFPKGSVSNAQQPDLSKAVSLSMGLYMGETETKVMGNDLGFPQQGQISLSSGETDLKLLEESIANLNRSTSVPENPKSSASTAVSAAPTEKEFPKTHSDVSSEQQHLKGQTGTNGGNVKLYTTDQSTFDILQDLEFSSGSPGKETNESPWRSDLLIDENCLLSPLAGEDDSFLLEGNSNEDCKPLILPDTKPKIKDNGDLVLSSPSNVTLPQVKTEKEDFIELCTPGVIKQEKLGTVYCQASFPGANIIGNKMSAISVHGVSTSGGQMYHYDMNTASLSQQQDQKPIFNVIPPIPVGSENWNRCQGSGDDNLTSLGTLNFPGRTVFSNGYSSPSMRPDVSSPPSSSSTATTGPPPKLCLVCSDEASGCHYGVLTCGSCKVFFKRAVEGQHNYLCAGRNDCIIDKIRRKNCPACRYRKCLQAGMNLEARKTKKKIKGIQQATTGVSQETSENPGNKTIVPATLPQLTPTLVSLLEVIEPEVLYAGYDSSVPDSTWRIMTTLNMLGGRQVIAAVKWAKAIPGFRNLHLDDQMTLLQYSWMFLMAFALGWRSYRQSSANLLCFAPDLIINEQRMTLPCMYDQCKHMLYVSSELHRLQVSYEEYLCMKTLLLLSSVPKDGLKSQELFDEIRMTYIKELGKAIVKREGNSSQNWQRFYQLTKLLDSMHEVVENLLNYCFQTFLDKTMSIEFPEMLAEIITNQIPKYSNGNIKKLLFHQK
Nature of the data set: In vitro CEREP profiling, GR (h) (agonist radioligand). In kind it is binding. To be noted: test compound concentration 10 uM.
Text: as §1

In another data set the target is T5, 5-HT2B (h) (Homo sapiens, UniProt P41595).
T5 construct: purchased Eurofins Cerep (SafetyScreen44), recognised from the panel format
T5 sequence (P41595 whole entry): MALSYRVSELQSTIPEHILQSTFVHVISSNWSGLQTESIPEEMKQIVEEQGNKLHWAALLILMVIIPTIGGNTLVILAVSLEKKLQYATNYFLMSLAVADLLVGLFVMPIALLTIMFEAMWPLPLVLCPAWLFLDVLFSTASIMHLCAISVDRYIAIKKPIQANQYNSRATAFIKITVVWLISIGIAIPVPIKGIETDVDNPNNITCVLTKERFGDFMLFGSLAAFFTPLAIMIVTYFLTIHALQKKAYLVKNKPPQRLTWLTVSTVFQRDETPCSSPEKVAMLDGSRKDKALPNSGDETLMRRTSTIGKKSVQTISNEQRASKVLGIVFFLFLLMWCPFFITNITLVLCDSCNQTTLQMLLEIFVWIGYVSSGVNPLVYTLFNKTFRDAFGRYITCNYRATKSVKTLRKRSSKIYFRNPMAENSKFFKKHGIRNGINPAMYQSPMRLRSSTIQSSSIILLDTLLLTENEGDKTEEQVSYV
Nature of the data set: In vitro CEREP profiling, 5-HT2B (h) (agonist radioligand). In kind it is binding. To be noted: test compound concentration 10 uM.
Text: as §1

A further data set deals with CYP. Nature of the data set: CYP inhibition. It counts as in vitro ADME. The conditions noted are these: In vitro CYP inhibition pooled; for potency: potency class in words. An excerpt: Supplement media-1.zip/CYP_Inhibition.csv, table | column: ic50; potency
The test system of data set [2] is Ca2+ channel (L, dihydropyridine site). Nature of the data set: In vitro CEREP profiling, Ca2+ channel (L, dihydropyridine site) (antagonist radioligand). It counts as binding. To be noted: test compound concentration 10 uM.
Text: as §1

The target of the next data set is T6, alpha2A (h) (Homo sapiens, UniProt P08913).
T6 construct: purchased Eurofins Cerep (SafetyScreen44), recognised from the panel format
T6 sequence (P08913 1-465): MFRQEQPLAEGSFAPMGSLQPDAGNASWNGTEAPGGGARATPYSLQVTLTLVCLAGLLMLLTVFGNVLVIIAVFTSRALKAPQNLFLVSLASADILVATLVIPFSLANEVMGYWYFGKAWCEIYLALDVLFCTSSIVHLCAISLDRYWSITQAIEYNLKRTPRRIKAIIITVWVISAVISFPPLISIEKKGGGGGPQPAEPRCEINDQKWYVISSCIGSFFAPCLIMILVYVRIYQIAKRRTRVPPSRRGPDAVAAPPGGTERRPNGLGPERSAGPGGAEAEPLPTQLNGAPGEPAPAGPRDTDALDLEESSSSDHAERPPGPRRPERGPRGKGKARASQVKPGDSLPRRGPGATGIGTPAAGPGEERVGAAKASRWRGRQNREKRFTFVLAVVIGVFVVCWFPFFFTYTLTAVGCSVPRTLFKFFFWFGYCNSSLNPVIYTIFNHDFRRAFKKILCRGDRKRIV
Nature of the data set: In vitro CEREP profiling, alpha2A (h) (antagonist radioligand). It counts as binding. The conditions noted are these: test compound 10 uM.
Text: as §1

In the next data set the target is T7, 5-HT2A (h) (Homo sapiens, UniProt P28223).
T7 construct: purchased Eurofins Cerep (SafetyScreen44), recognised from the panel format
T7 sequence (P28223 whole entry): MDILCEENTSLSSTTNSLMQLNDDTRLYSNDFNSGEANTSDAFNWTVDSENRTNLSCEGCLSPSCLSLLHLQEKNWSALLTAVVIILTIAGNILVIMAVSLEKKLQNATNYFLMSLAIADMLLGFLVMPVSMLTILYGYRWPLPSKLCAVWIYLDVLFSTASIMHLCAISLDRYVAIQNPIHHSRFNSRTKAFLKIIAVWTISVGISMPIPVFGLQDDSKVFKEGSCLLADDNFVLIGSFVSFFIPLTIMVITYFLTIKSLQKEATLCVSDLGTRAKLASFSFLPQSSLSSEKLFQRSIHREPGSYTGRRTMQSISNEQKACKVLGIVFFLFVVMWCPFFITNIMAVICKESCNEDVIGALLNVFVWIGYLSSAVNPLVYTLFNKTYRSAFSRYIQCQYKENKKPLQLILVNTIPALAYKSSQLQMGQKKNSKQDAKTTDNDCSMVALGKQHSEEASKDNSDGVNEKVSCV
Nature of the data set: In vitro CEREP profiling, 5-HT2A (h) (agonist radioligand). In kind it is binding. To be noted: test compound concentration 10 uM.
Text: as §1

As a reminder, the CC50 is the concentration giving 50% cytotoxicity. Read a low CC50 as harm at low concentration. One may read the IC50 as the point on the concentration scale where inhibition reaches its midpoint. Low readings indicate greater potency, high ones weaker potency.

Structures are written as SMILES. Where “and” joins values, the source holds several entries; their conditions need not be identical. Identical values can stand only once. A value given as a limit tells only on which side of the number the result lay.

T1 sequence (P43681 29-627 limits assumed): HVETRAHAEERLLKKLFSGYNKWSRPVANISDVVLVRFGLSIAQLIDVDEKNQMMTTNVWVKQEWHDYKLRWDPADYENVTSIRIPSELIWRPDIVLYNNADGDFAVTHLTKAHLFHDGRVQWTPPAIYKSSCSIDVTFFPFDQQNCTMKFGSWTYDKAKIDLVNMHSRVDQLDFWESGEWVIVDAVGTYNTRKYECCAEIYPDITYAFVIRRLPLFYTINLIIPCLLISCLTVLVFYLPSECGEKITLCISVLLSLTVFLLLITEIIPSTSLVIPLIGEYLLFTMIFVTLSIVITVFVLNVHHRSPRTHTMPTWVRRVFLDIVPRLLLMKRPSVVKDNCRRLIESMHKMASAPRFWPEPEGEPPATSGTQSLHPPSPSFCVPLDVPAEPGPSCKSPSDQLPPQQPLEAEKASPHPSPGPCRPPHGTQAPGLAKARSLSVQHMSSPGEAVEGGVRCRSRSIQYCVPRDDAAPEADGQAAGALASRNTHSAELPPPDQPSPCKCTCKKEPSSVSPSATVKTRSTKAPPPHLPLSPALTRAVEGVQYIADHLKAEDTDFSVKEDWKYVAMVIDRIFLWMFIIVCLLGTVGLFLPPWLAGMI
T1 sequence (P17787 26-502): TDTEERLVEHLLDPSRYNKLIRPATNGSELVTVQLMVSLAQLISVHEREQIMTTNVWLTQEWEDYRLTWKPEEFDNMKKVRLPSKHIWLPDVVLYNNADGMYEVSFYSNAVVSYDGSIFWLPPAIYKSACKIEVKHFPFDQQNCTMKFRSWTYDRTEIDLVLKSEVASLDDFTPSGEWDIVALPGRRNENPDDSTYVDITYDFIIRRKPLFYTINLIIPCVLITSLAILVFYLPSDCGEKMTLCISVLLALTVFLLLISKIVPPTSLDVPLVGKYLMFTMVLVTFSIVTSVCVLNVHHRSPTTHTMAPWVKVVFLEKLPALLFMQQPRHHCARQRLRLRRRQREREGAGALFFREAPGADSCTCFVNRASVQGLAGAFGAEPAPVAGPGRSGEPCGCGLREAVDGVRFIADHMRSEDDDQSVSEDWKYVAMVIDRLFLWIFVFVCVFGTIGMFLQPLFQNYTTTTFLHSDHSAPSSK

`COc1ccc([C@H](Cc2nnn[nH]2)NC(=O)c2ncnc3[nH]ccc23)cc1` [ASAP-0015381] showed a cytotoxic concentration (CC50) in the data set with HeLa-ACE2 cells greater than 20 µM. Moreover, in the data set on HeLa-ACE2 cells, the cc10 is greater than 20.0 µM. Moreover, the perc_max_measured in the data set on HeLa-ACE2 cells (highest measured response of the dose series) is 115.218% and 123.48%. Moreover, the perc_min_measured in the data set with HeLa-ACE2 cells (lowest measured response of the dose series) is 79.698% and 90.022%. In addition, the “perc_inhibition (% inhibition of the binding of a ligand specific for each target)” value in data set [1] is on record as 4%; in the data set with AR(h), -2%; on 5-HT3 (h), 6%; on CB1 (h), -8%; on GR (h), 1%; on 5-HT2B (h), -33%. In addition, the “perc_inhibition (% inhibition of the binding of a ligand specific for each target)” value in data set [2] is given as -22%; at alpha2A (h), -1%; on 5-HT2A (h), -4%. The half-inhibitory concentration (IC50) with CYP (isoform 1A2) was greater than 50 µM; with CYP (isoform 2C9) it was 31.2 µM; with CYP (isoform 2C19), greater than 50 µM; in the data set with CYP (isoform 2D6), greater than 50 µM; in the data set with CYP (isoform 3A4), 25.4 µM. Besides, the potency result in the data set with CYP (isoform 1A2), in the data set on CYP (isoform 2C9), in the data set on CYP (isoform 2C19), with CYP (isoform 2D6) and with CYP (isoform 3A4) was “weak” each time.
